One assay has as its system tubulin. As to the kind of experiment: In vitro % inhibition of tubulin polymerization (Table 12; absorbance at 340 nm, Vmax). In kind it is biochemical. Here is the method:
A 96-well half-area clear flat-bottom microplate (Corning© #3697) is pre-heated in a plate reader (Cytation 3, BioTek) at 37° C. for 15 minutes prior to the start of each assay. Kinase buffer (80 mM PIPES pH 6.9, 2 mM MgCl2, 0.5 mM EGTA, 15% glycerol, 1 mM GTP) is prepared from stock solutions and placed on ice. Inhibitors of this application are prepared to 10 μM concentrations in buffer (80 mM PIPES pH 6.9, 2 mM MgCl2, 0.5 mM EGTA, 5% DMSO) from DMSO stock solutions. After the assay plate is pre-warmed, 10 μL of inhibitor or buffer control is added to selected wells. Every assay contained a kinase only negative control for normalization of data, and a known compound positive control. The assay plate is incubated at 37° C. for 3 minutes. During this time, a frozen aliquot of the kinase (10 mg/mL) in buffer (80 mM PIPES pH 6.9, 2 mM MgCl2, 0.5 mM EGTA) is defrosted by placing in a room temperature water bath. Once thawed, 200 μL of the kinase is mixed with 420 μL of the ice-cold kinase buffer (3 mg/mL kinase in 80 mM PIPES, pH 6.9, 2 mM MgCl2, 0.5 mM EGTA, 1 mM GTP, 10.2% glycerol). To a 96-well plate on ice, aliquots of 100 μL kinase is added to each well. From this plate, 90 μL of the kinase is immediately pipetted into all sample wells of the warmed assay plate using a multi-channel pipette. The assay plate is immediately put in the reader at 37° C. and shook for 5 s with orbital shaking at medium speed. The reader records the absorbance at 340 nm every 15 s for 30 min.
The resulting absorbance curves are normalized by subtracting each data point by the absorbance at time 0.

The subject of the next assay is MV-4-11. The assay can be described thus: In vitro IC50 against human cancer cells (Table 11), MV-4-11. It is filed as cell-based. As to conditions: MV4-11, read-out: Human cancer cell lines (IC50, μM) MV-4-11.
A further assay has as its system MOLM-13. The assay can be described thus: In vitro IC50 against human cancer cells (Table 11), MOLM-13. It is filed as cell-based. Particulars: read-out: Human cancer cell lines (IC50, μM) MOLM-13.
The subject of another assay is K562. The assay can be described thus: In vitro IC50 against human cancer cells (Table 11), K562. Particulars: read-out: Human cancer cell lines (IC50, μM) K562. It is filed as cell-based.
A further assay has as its target T1, BMX (Homo sapiens, UniProt P51813).
T1 sequence (P51813 1-675): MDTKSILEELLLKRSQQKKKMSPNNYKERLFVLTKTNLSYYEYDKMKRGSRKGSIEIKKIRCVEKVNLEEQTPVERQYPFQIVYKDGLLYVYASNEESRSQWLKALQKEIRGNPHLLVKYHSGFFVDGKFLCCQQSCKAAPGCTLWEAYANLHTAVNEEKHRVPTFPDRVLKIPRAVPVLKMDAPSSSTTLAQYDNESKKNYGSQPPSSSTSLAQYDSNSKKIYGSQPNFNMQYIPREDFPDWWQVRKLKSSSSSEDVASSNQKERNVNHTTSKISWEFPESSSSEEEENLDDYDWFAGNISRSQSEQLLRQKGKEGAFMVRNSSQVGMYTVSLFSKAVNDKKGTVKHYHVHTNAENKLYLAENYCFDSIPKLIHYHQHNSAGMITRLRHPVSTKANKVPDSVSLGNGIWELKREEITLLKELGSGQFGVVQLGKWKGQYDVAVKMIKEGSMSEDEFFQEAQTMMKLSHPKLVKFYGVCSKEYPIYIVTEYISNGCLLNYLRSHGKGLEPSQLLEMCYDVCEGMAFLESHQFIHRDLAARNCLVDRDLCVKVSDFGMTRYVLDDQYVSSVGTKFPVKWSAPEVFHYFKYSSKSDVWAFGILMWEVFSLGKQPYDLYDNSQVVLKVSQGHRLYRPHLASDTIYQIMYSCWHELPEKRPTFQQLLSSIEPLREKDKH
As to the kind of experiment: In vitro kinase inhibition studies (Table 9), BMX. In kind it is biochemical.

In a further assay the target is BTK (Homo sapiens, UniProt Q06187). The assay can be described thus: In vitro BTK inhibition, biochemical IC50 (no preincubation). Particulars: Table 7. Here is the method:
IC50 Values (nM) for the Inhibition of BTK Activity
In vitro BTK and JAK3 inhibition studies are shown in Table 7 and Table 8 (no preincubation).

For assay [1], the target named is T2, His-tagged BTK kinase domain (Homo sapiens, UniProt Q06187).
T2 construct: pET-28b(+)-BTK (402-655) vector; made in house; host or cells: E. coli BL21 (DE3) RILP
T2 sequence (Q06187 402-655): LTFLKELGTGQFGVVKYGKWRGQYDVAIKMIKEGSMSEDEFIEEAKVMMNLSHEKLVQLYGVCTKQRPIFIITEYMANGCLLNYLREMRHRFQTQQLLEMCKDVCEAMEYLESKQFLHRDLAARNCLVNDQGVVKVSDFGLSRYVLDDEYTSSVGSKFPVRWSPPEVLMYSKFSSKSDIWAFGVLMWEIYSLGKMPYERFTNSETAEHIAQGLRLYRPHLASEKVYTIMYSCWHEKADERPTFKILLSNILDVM
The assay can be described thus: Mass spectral analysis of tryptic digest of His-tagged BTK kinase domain (MSMS of modified peptides). In kind it is binding. Particulars: 10 μM compound, 45 min; for C481 labelled by test compound (tryptic digest peptide): cysteine 481. How it is done: A protein kinase that is inhibited by compound and/or pharmaceutically acceptable salt of the present disclosure may be subjected to mass spectral analysis to assess the formation of permanent, irreversible covalent adducts. […] Such methods identify permanent, irreversible covalent protein adducts by observing a mass peak that corresponds to the mass of a control sample plus the mass of an irreversible adduct.
The starter cultures were incubated with shaking at 37° C. until cloudy and used to inoculate 1 L of Super broth containing same concentrations of kanamycin and chloramphenicol, 10 mM MgSO4, 5 mM CaCl2), and 0.1% (w/v) glucose. The cultures were incubated under similar conditions to an OD600 of 0.6-0.8. Before induction with 0.5 mM IPTG, the temperature was reduced to 16° C. The cells were harvested by centrifugation following approximately 18 h and frozen in a −80° C. freezer until use.
Cells were thawed in lysis buffer (50 mM HEPES [pH 7.6], 300 mM NaCl, 10 mM MgCl2, 10% [v/v] glycerol, 0.1 mg/mL lysozyme, 50 μg/mL DNase I, and protease inhibitors). Cells were sonicated (30 s on, 60 s off) for 3 repeating cycles. The cell lysates were cleared by centrifugation at 4° C. […] This eluant was cleaved with Ulp1 protease and loaded onto a S200 Superdex FPLC column (GE healthcare) pre-equilibrated with 20 mM HEPES pH 7.4, 150 mM NaCl, and 10% [v/v] glycerol. Pure fractions of His-tagged BTK kinase domain, as judged by SDS-PAGE, were pooled and concentrated using Amicon 10 kDa cutoff concentrators and after aliquoting stored at −80 C until use.
After the incubation time, the reactions were quenched by acetone precipitation and the pellet was re-dissolved in 8 M Urea. The protein was then reduced (5 mM DTT), alkylated (15 mM iodoacetamide) and digested (1 μg trypsin at 37° C. for 4 hours). The digest was then stopped by addition of trifluoroacetic acid, and peptides were removed from gel band by sonicating with increasing amounts of acetonitrile (0%, 30%, & 60%). Peptides were then purified using C18 ziptips, spotted on the MALDI target plate with a-cyano-4-hydroxycinnamic acid as the desorption matrix (10 mg/ml in 0.1% TFA: Acetonitrile 50:50), and analyzed in reflectron mode.

The next assay deals with FGFR1 (Homo sapiens, UniProt P11362). As to the kind of experiment: In vitro kinase inhibition studies (Table 9), FGFR1. In kind it is biochemical.
FGFR1, sequence (P11362 22-822, species assumed): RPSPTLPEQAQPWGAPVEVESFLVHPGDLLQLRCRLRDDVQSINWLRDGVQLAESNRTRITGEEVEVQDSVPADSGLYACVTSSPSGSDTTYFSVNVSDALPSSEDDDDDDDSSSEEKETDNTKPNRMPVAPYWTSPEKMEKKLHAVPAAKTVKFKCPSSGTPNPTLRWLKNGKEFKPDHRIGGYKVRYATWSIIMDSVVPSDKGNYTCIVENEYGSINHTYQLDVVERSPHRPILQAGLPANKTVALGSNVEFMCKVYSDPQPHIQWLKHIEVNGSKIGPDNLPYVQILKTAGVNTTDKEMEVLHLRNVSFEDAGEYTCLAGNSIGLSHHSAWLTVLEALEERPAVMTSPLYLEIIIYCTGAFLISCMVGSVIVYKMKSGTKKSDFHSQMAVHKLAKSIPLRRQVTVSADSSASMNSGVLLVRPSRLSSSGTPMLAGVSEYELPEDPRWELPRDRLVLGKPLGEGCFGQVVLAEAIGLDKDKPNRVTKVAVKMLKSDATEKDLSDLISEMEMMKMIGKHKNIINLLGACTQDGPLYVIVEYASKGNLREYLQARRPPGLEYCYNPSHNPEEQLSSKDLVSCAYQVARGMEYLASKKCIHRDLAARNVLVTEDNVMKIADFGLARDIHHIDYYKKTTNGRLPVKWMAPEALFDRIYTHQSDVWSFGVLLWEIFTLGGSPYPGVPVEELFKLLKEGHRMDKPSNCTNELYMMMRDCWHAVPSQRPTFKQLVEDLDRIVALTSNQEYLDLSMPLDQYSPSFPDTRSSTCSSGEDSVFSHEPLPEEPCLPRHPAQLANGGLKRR
For the next assay, the target named is FGFR4 (Homo sapiens, UniProt P22455). The assay can be described thus: In vitro kinase inhibition studies (Table 9), FGFR4. It is filed as biochemical.
FGFR4, sequence (P22455 22-802, species assumed): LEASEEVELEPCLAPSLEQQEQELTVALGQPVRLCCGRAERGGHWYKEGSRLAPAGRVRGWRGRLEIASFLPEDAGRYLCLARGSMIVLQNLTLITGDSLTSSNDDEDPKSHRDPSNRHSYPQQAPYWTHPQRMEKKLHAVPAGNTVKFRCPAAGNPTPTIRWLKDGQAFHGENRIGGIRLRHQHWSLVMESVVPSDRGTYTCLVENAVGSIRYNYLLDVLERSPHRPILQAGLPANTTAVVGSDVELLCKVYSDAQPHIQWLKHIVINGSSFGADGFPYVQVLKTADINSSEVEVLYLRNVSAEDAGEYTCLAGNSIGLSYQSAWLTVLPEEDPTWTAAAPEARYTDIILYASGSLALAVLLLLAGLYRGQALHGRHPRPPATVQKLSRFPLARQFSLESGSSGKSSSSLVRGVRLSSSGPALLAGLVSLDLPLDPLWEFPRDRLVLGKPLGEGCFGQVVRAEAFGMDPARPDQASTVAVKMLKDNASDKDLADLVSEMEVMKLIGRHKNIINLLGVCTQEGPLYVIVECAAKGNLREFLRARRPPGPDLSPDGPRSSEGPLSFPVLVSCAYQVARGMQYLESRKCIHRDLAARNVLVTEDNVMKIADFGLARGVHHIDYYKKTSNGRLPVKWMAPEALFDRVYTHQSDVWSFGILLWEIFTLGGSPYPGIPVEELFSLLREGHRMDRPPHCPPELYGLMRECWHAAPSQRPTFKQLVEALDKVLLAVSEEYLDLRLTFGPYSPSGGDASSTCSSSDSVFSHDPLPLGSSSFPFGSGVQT
The subject of a further assay is RL cells. As to the kind of experiment: IC50 of Ibrutinib analogs against human cancer cells, RL cells (Table 14). It is filed as cell-based. Particulars: Homo sapiens, RL, Table 14; RL human non-Hodgkin's lymphoma B cell line; read-out: RL (IC50).
The mark [2] stands for this setting: 10 μM His-BTK KD, tryptic digest MSMS.

SMILES strings stand for the structures.

One may read the IC50 as the midpoint of a concentration-inhibition curve.

BTK, sequence (Q06187 whole entry, species assumed): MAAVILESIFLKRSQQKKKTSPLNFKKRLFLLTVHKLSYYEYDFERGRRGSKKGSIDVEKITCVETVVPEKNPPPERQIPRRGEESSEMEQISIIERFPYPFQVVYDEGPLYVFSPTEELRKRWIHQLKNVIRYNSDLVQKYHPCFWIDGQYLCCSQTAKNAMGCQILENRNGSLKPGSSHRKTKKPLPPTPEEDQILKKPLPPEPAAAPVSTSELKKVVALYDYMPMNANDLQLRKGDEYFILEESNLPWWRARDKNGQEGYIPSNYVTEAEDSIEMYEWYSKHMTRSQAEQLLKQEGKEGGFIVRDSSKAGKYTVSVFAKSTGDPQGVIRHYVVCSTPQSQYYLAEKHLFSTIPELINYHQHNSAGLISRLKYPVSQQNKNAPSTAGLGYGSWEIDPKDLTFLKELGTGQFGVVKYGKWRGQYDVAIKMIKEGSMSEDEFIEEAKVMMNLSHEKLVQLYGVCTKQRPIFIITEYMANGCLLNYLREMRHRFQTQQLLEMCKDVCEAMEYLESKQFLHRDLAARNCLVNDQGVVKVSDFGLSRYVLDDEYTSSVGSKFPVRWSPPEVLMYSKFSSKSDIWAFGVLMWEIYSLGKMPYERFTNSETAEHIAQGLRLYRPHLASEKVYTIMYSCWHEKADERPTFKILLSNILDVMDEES
Experimental for RL cells: 1×10^4 cells (NHF cells)/well are plated in 96-well assay plates in culture medium. […] After 24 hrs, test compounds and vehicle controls are added to appropriate wells so the final volume is 100p in each well. The cells are cultured for the desired test exposure period (72 hrs) at 37° C. and 5% CO2. The assay plates are removed from 37° C. incubator and 20 μl/well of CellTiter-Blue® Reagent is added. The plates are incubated using standard cell culture conditions for 1-4 hours and the plates are shaken for 10 seconds and record fluorescence at 560/590 nm. […] Therapeutic index=(IC50 human fibroblasts/IC50 […] )

On to `COc1ccc(NS(=O)(=O)c2c(F)c(F)c(F)c(F)c2F)cc1F` [Batabulin], for which the “% inhibition of tubulin polymerization” value with tubulin was “C (C > 20%)”. The IC50 with MV-4-11, in the assay with MOLM-13 and in the assay on K562 was ≤ 0.1 µM throughout.
`O=S(=O)(Nc1ccc(OCF)c(F)c1)c1c(F)c(F)c(F)c(F)c1F` [Compound 4-6, 2,3,4,5,6-pentafluoro-N-(3-fluoro-4-(fluoromethoxy)phenyl)benzenesulfonamide]: in the assay on tubulin, the “% inhibition of tubulin polymerization” value was “B (B: 10-20%)”. Also, the half-maximal inhibitory concentration (IC50) in the assay with MV-4-11, with MOLM-13 and in the assay on K562 was 0.1 to 10 µM each time.
In the case of `COc1ccc(N(C)S(=O)(=O)c2c(F)c(F)c(F)c(F)c2F)cc1F` [Compound 4-12, 2,3,4,5,6-pentafluoro-N-(3-fluoro-4-methoxyphenyl)-N-methylbenzenesulfonamide], the half-maximal inhibitory concentration (IC50) in the assay with K562 fell in the range of 0.1 to 10 µM.
In turn, `COCCOc1ccc(Nc2ncc(F)c(Nc3cccc(N(C)S(=O)(=O)c4c(F)c(F)c(F)c(F)c4F)c3)n2)cc1` [Compound 5-17, 2,3,4,5,6-pentafluoro-N-(3-((5-fluoro-2-((4-(2-methoxyethoxy)phenyl)amino)pyrimidin-4-yl)amino)phenyl)-N-methylbenzenesulfonamide] came in with a concentration for half-maximal inhibition (IC50) against BMX of 0.1 to 10 nM.
Turning to `Nc1ncnc2c1c(-c1ccc(Oc3ccccc3)cc1)nn2[C@@H]1CCN(S(=O)(=O)c2c(F)c(F)c(F)c(F)c2F)C1` [Compound 5-5, (R)-1-(1-((perfluorophenyl)sulfonyl)pyrrolidin-3-yl)-3-(4-phenoxyphenyl)-1H-pyrazolo[3,4-d]pyrimidin-4-amine], the IC50 at BTK lay within 0.1 to 10 nM.
In the case of `O=S(=O)(Nc1ccc(OC(F)(F)F)c(F)c1)c1c(F)c(F)c(F)c(F)c1F` [Compound 4-1, 2,3,4,5,6-pentafluoro-N-(3-fluoro-4-(trifluoromethoxy)phenyl)benzenesulfonamide], in the assay on tubulin, the “% inhibition of tubulin polymerization” value is “B (B: 10-20%)”. The IC50 in the assay with MV-4-11, with MOLM-13 and in the assay on K562 was 10 to 100 µM each time.
Take `O=S(=O)(Nc1ccc(OC(F)F)c(F)c1)c1c(F)c(F)c(F)c(F)c1F` [Compound 4-4, N-(4-(difluoromethoxy)-3-fluorophenyl)-2,3,4,5,6-pentafluorobenzenesulfonamide]: the “% inhibition of tubulin polymerization” value with tubulin is listed as “B (B: 10-20%)”. The half-inhibitory concentration (IC50) in the assay on MV-4-11 and in the assay with MOLM-13 was 0.1 to 10 µM throughout.
Consider `Nc1ncnc2c1c(-c1ccc(Oc3ccccc3)cc1)nn2CCNS(=O)(=O)c1c(F)c(F)c(F)c(F)c1F` [Compound 5-3, N-[2-[4-amino-3-(4-phenoxyphenyl)pyrazolo[3,4-d]pyrimidin-1-yl]ethyl]-2,3,4,5,6-pentafluoro-benzenesulfonamide], for which the “C481 labelled by test compound (tryptic digest peptide)” value in assay [1] (10 μM BTK KD) was “✓”. For the same molecule, the “C527 labelled by test compound (tryptic digest peptide)” value in assay [1] (cysteine 527, 10 μM BTK KD) is given as “✓”. The IC50 at BMX is 0.1 to 10 nM.
As to `COCCOc1ccc(Nc2ncc(F)c(Nc3ccc(NS(=O)(=O)c4c(F)c(F)c(F)c(F)c4F)cc3)n2)cc1` [Compound 5-14, 2,3,4,5,6-pentafluoro-N-(4-((5-fluoro-2-((4-(2-methoxyethoxy)phenyl)amino)pyrimidin-4-yl)amino)phenyl)benzenesulfonamide], the IC50 against FGFR1 and against FGFR4 was 10 to 300 nM each time.
Consider `Nc1ncnc2c1c(-c1ccc(Oc3ccccc3)cc1)nn2[C@H]1CCCN(S(=O)(=O)c2c(F)c(F)c(F)c(F)c2F)C1` [Compound 5-2, (S)-1-(1-((perfluorophenyl)sulfonyl)piperidin-3-yl)-3-(4-phenoxyphenyl)-1H-pyrazolo[3,4-d]pyrimidin-4-amine], for which the IC50 against BMX lay in the range of 0.1 to 10 nM.
As to `COCCOc1ccc(Nc2ncc(F)c(NCCNS(=O)(=O)c3c(F)c(F)c(F)c(F)c3F)n2)cc1` [Compound 5-13, 2,3,4,5,6-pentafluoro-N-(2-((5-fluoro-2-((4-(2-methoxyethoxy)phenyl)amino)pyrimidin-4-yl)amino)ethyl)benzenesulfonamide], in [1] (setting [2]), the “amino acid of BTK modified by one equivalent of compound” value was “Cys-481”. The “observed mass of modified tryptic peptide” value in assay [1] (setting [2]) came out at 3059.4 Da. The “C481 labelled by test compound (tryptic digest peptide)” value in [1] (10 μM BTK KD) is recorded as “✓”. Further, the concentration for half-maximal inhibition (IC50) at FGFR1 and against FGFR4 was > 2000 nM throughout.
In the case of `O=S(=O)(Nc1ccc(O)c(F)c1)c1c(F)c(F)c(F)c(F)c1F` [Compound 4-3, 2,3,4,5,6-pentafluoro-N-(3-fluoro-4-hydroxyphenyl)benzenesulfonamide], the “% inhibition of tubulin polymerization” value with tubulin is listed as “A (A: < 10%)”. In the assay with MV-4-11, the IC50 was in the range of 0.1 to 10 µM.
Regarding `O=S(=O)(Nc1ccc(Oc2ccccc2)cc1)c1c(F)c(F)c(F)c(F)c1F` [Compound 4-2, 2,3,4,5,6-pentafluoro-N-(4-phenoxyphenyl)benzenesulfonamide], the IC50 in the assay on MV-4-11 and with MOLM-13 was 10 to 100 µM each time.
Turning to `Nc1ncnc2c1c(-c1ccc(Oc3ccccc3)cc1)nn2S(=O)(=O)c1c(F)c(F)c(F)c(F)c1F` [Compound 5-19, 1-((perfluorophenyl)sulfonyl)-3-(4-phenoxyphenyl)-1H-pyrazolo[3,4-d]pyrimidin-4-amine], the half-inhibitory concentration (IC50) with RL cells was 1640 nM; at BMX, 10 to 300 nM.
Turning to `N#Cc1ccc(NS(=O)(=O)c2c(F)c(F)c(F)c(F)c2F)cc1F` [Compound 4-5, N-(4-cyano-3-fluorophenyl)-2,3,4,5,6-pentafluorobenzenesulfonamide], in the assay with MV-4-11, the IC50 lay within 10 to 100 µM.
